Test results published in article PMC7696255, “In-Silico Identified New Natural Sortase A Inhibitors Disrupt S. aureus Biofilm Formation” (International Journal of Molecular Sciences, 2020).
In brackets after ≈: the same amount, converted by molar mass. Where a name gives a salt, the structure may show the parent alone. Read-outs that look alike come from different tables or passages of the source.

Tests used:
S. aureus sortase A [1] = target: T1, S. aureus sortase A (Staphylococcus aureus, UniProt Q2FV99); experiment: SrtA enzyme inhibition FRET assay, DABCYL-LPETG-EDANS substrate; format: biochemical
T1 construct: purchased AnaSpec AS-72229
Description: (§1) The enzymatic reactions were carried out in black, low-binding polystyrene 384 well plates (Greiner Bio-One). […] SrtA was pre-incubated in the reaction buffer with compounds for 1 h at room temperature prior to the addition of the FRET substrate. Assays were performed in 50 µL reactions with 50 ng of S. aureus sortase A and 25 µM of DABCYL-LPETG-EDANS substrate or 1 µM of 5-FAM/QXL^TM 520 substrate. The inhibitory activity of the compounds was determined by monitoring the rise in fluorescence intensity over 24 h at Ex/Em = 336 nm/490 nm for the DABCYL/EDANS substrate and Ex/Em = 490 nm/520 nm for the 5-FAM/QXL 520 substrate on a Tecan Infinite M1000 Pro reader.
(§2) Raw fluorescence data were corrected for autofluorescence before computing percentage inhibition values. These percentage inhibition values were plotted against compound concentration using GraphPad Prism version 8.0 by nonlinear regression analysis using least squares fit method for IC50 determination. Testing was performed twice to ensure reproducibility of results.

S. aureus sortase A [2] = target: T1, S. aureus sortase A; experiment: SrtA enzyme inhibition FRET assay, 5-FAM/QXL 520 substrate; format: biochemical
Description: as §1, §2

S. aureus ATCC 25923 = experiment: S. aureus whole cell assay (MIC, microbroth dilution); format: cell-based, Staphylococcus aureus; details: for MIC: Staphylococcus aureus, ATCC25923, 24 h
Description: (§3) Minimum inhibitory concentration (MIC) tests were performed according to procedures of the Clinical Laboratory Standards Institute (CLSI) with minor changes using the microbroth dilution technique in a 384-well setup. Inoculum of each S. aureus strain was prepared by suspending segregated colonies in sterile saline to a 0.5 McFarland standard. An inoculum of 2–8 × 10^5 CFU/mL was incubated with the compounds for 24 h at 37 °C. Gentamicin (data not shown) was incubated in the same manner as the test compounds and served as a positive control. The effect of the compounds on bacterial growth was calculated by quantifying the optical density at 600 nm on a microplate reader (Tecan, Infinite M1000, Salzburg, Austria). Dilutions of the inoculum were cultivated on agar to verify the validity of the inoculum seeding density and absence of contamination. All tests were executed in triplicate during two separate experiments.

S. aureus Newman = experiment: as above; format: cell-based, Staphylococcus aureus; details: for MIC: Staphylococcus aureus, NEWMAN
Description: as §3

A549 cells = experiment: Mammalian cell cytotoxicity assay (PrestoBlue); format: cell-based, human; details: read-out: Mammalian cell lines IC50
Description: (§4) A549 and HepG2 cells were seeded at 1500 and 2500 cells per well, respectively, in 384-well microplates and incubated at 37 °C in the presence of 5% CO2. The next day, cells were treated with compounds then incubated for an additional 72 h. To assess the cytotoxic effect of the compounds PrestoBlue cell viability reagent (Life Technologies, Carlsbad, CA, USA) was used. After the 72 h incubation with compounds, the 384-well assay plates were incubated with this viability indicator dye for 2 h (A549) and 4 h (HepG2) before fluorescence reading at Ex/Em = 560 nm/590 nm on the Tecan Infinite M1000 Pro reader. Puromycin (data not shown) was used as the positive control against both cell lines. All tests were executed in triplicate on two separate experiments.

HepG2 cells = experiment: Mammalian cell cytotoxicity assay (PrestoBlue); format: cell-based, human; details: read-out: Mammalian cell lines IC50
Description: as §4

[3] = tested on: S. aureus ATCC 33591 (MRSA) biofilm formation; experiment: Biofilm inhibitory assay (crystal violet), biofilm formation; format: cell-based, Staphylococcus aureus
Description: (§5) The effectiveness of SrtA inhibitors in reducing biofilm formation and growth was assessed using the crystal violet (CV) biofilm assay with the following modifications. TSB with 2% glucose (TSB without glucose for E. coli) was inoculated with 10^5 CFU/mL of S. aureus and E. coli overnight cultures. A total of 90µl of this cell suspension was then dispensed into 96-well microtiter plates containing 10 µL of different concentrations of the SrtA inhibitors. After 24 h growth at 37 °C the plates were washed with PBS to remove unbound cells and heat fixed at 60 °C for 30 min. Next, the wells were stained with 0.1% crystal violet solution for 15 min at room temperature. At the completion of the incubation plates were washed 3 times with PBS and dried. Then the crystal violet dye from the biofilm was solubilized with 200 µL of DMSO. A total of 100 µL of this solution was then moved to a new microtiter plate for absorbance measurement at 595 nm. For pre-formed biofilm assay, the plates were prepared and incubated as mentioned earlier, without SrtA inhibitors. After 24 h incubation, the culture supernatant was removed gently and biofilm carefully washed with sterile PBS. Next, 10 µL of different concentrations of SrtA inhibitors with 90 µL of TSB with 2% glucose were added carefully into the wells and incubated at 37 °C for 24 h. The amount of crystal violet staining of biofilm was measured as described above. The results were reported as percent inhibition normalized to the wild type control. Two independent experiments were performed in triplicate to ensure reproducibility.

[4] = tested on: S. aureus Newman biofilm formation; experiment: as above; format: cell-based, Staphylococcus aureus; details: CV assay; for IC50: biofilm formation, read-out: Biofilm Inhibition IC50
Description: as §5

[5] = tested on: S. aureus ATCC 33591 (MRSA) pre-formed biofilms; experiment: Biofilm inhibitory assay (crystal violet), pre-formed biofilms; format: cell-based, Staphylococcus aureus; details: in words
Description: as §5

[6] = tested on: E. coli ATCC 25922 biofilm formation; experiment: Biofilm inhibitory assay (crystal violet), biofilm formation; format: cell-based; details: in words; CV assay
Description: as §5, with “Next, 10 µL of different concentrations of SrtA inhibitors with 90 µL of TSB with 2% glucose were added carefully into the wells and incubated at 37 °C for 24 h.” left out, “The results were reported as percent inhibition normalized to the wild type control. Two independent experiments were performed in triplicate to ensure reproducibility.” left out

[7] = tested on: adherence of S. aureus Newman to fibrinogen; experiment: Fibrinogen binding assay; format: cell-based, Staphylococcus aureus
Description: Fibrinogen binding assay was completed as described but with slight revision. A flat-bottom 96-well plate was covered with fibrinogen protein by adding 50 µL of 20 µg/mL of fibrinogen protein from bovine plasma diluted in saline and incubated at 4 °C for 24 h. The coated plates were gently rinsed twice with PBS and blocked for 60 min with 4% bovine serum albumin (BSA). The plates were then washed 3 times with PBS. For this assay, S. aureus Newman strain was cultivated in TSB at 37 °C to exponential phase (OD600 = 0.5) and then the bacterial culture was incubated with various concentrations of test compound or control for 2.5 h. Then the cells were pelleted by centrifugation at 10,000× g for 10 min, the supernatants were removed and the cell pellets stored at −20 °C. The following day, cell pellets were suspended in PBS and dispersed in 100 μL aliquots to distinct wells of fibrinogen-coated 96-well plates. After 2 h of growth at 37 °C, the bacterial supernatant was discarded and the wells were rinsed gently with 150 µl PBS. Then the bacterial cells were fixed with 2% (v/v) glutaraldehyde and incubated for 30 min at 25 °C. After a wash with PBS, bound cells were stained with 0.1% crystal violet dye for 15 min. Plates were rinsed twice again with PBS, enclosed with aluminum foil, then stored at room temperature to dry overnight. On the next day absorbance was measured at 570 nm. The results were described as the percent of adhesion inhibition normalized to the wild type control. Two independent experiments were performed in triplicate to ensure reproducibility.

[8] = Sortase A IC50, DABCYL-LPETG-EDANS substrate, 4 h
[9] = Sortase A IC50, 5-FAM/QXL substrate, 10 min

T1 sequence (Q2FV99 whole entry): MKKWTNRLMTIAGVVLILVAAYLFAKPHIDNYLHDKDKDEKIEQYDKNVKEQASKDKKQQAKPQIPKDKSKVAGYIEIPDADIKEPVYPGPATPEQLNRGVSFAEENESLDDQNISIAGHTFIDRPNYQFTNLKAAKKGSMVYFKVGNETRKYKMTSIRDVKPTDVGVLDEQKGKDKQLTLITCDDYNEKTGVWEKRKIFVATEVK

Structure (SMILES): O=C(/C=C/c1ccc(O)c(O)c1)O[C@@H]1C[C@](O)(C(=O)O)C[C@@H](O)[C@H]1O [Chlorogenic acid, reference compound]
- IC50 (S. aureus sortase A [1]; [8]): 88 ± 5.6 µM
- IC50 (S. aureus sortase A [2]; [9]): 144 ± 16 µM
- IC50 (S. aureus sortase A [2]; Sortase A IC50, 5-FAM/QXL substrate, after 24 h): 103 ± 31 µM
- MIC (S. aureus ATCC 25923): > 200 µM
- MIC (S. aureus Newman; 24 h): > 200 µM
- growth inhibition of S. aureus (S. aureus Newman; at 200 µM, strain not given): did not inhibit the growth
- IC50 (A549 cells; Homo sapiens, A549, 72 h): > 200 µM
- IC50 (HepG2 cells; Homo sapiens, HepG2, 72 h): > 200 µM

Structure (SMILES): COc1ccc(C[C@H](N)C(=O)N[C@H]2[C@@H](O)[C@H](n3cnc4c(N(C)C)ncnc43)O[C@@H]2CO)cc1 [Compound N51, Puromycin hydrochloride]
- IC50 (S. aureus sortase A [1]): > 200 µM
- IC50 (S. aureus sortase A [2]): > 200 µM

Structure (SMILES): CC(C)(O)[C@H]1O[C@H]2CC[C@@]3(C)[C@@](O)(CC[C@H]4Cc5c([nH]c6ccccc56)[C@@]43C)C2=CC1=O [Compound N563, Paxilline]
- IC50 (S. aureus sortase A [1]): > 200 µM
- IC50 (S. aureus sortase A [2]): > 200 µM

Structure (SMILES): CC(C)=CCc1c(O)c(CC=C(C)C)c2occ(-c3ccc(O)cc3)c(=O)c2c1O [Compound N942, 6,8-diprenylgenistein]
- IC50 (S. aureus sortase A [1]): > 200 µM
- IC50 (S. aureus sortase A [2]): > 200 µM

Structure (SMILES): CC(C)=CCc1c2c(c(O)c3c(=O)c(-c4ccc(O)c(O)c4)coc13)C=CC(C)(C)O2 [Compound N1048, Auriculasin]
- IC50 (S. aureus sortase A [1]): > 200 µM
- IC50 (S. aureus sortase A [2]): > 200 µM

Structure (SMILES): Cc1cc(O)c2c(c1)C(=O)c1c(c(O)cc(O)c1-c1c(O)cc(O)c3c1C(=O)c1cc(C)cc(O)c1C3=O)C2=O [Compound N1287, Skyrin]
- IC50 (S. aureus sortase A [1]; [8]): 24 ± 2.1 µM
- IC50 (S. aureus sortase A [1]; SrtA enzymatic activity IC50, text summary, Figure 2A,B, both substrates): < 50 µM
- IC50 (S. aureus sortase A [2]; [9]): 31 ± 0.3 µM
- S. aureus MIC (S. aureus ATCC 25923; 24 h): 5 to 8 µM
- MIC (S. aureus ATCC 25923): 7.2 ± 0.1 µM (≈ 3.88 µg/mL)
- S. aureus MIC (S. aureus Newman; Newman, 24 h): 5 to 8 µM
- MIC (S. aureus Newman; 24 h): 7.3 ± 0.8 µM (≈ 3.93 µg/mL)
- IC50 (A549 cells; 72 h): 60 to 90 µM
- IC50 (A549 cells; Homo sapiens, A549, 72 h): 64.7 ± 6.2 µM
- IC50 (HepG2 cells; 72 h): 60 to 90 µM
- IC50 (HepG2 cells; Homo sapiens, HepG2, 72 h): 63.9 ± 5.1 µM
- IC50 ([3]; Staphylococcus aureus, S. aureus ATCC 33591 (MRSA), biofilm formation, read-out: Biofilm Inhibition IC50): 41.9 µM
- inhibitory activity on MRSA biofilm formation ([3]; in words): exhibited inhibitory activity
- concentration giving >90% inhibition of biofilm formation [4]: 23 µM
- IC50 ([4]; Staphylococcus aureus, NEWMAN): 12.2 ± 4.1 µM
- IC50 [4]: 12 µM
- inhibitory activity on MRSA pre-formed biofilms [5]: not against pre-formed biofilms
- effect on E. coli ATCC 25922 biofilm formation [6]: did not show any effect
- IC50 ([7]; Staphylococcus aureus, NEWMAN, read-out: Fibrinogen adherence Inhibition IC50): 9.5 ± 0.5 µM
- concentration giving ≥90% prevention of S. aureus Newman adherence to fibrinogen ([7]; compared to untreated wildtype strain): 46 µM
